This is an account of results in patent publication US20050075276A1, “Use of inhibitors of glycogen synthase-3 to augment CD28 dependent -T-cell responses” (priority 2003, published 2005).

In assay [1] the test system is K562 cells. Kind of assay: Cytolytic T-cell (CTL) killing of K562 cells, CytoTox96 assay. Conditions: for potentiation of cytolytic T-cell response: 6 days co-culture, FIG. 5A. In kind it is cell-based, human.
Procedure: Cytotoxic activity was also measured and combined with a control where cultures were treated with anti-CD28 mAbs (5 μg/ml). After 6 days, cytolytic T-cells were harvested, washed twice and co-cultured with fresh K562 cells. Cytotoxcity was measured by the CytoTox96 non-radioative cytotoxicity assay from Promega (Southampton, UK).
(§1) Peripheral blood lymphocytes (PBLs) were isolated by Ficoll gradient centrifugation from Buffy coats, or from blood samples (60-120 cc) taken from healthy volunteers. Leukemic cells K562 were first treated with 50 ug/ml Mitomycin C (Sigma) for 1 hour in 5% CO2 incubator at 37° C. and then washed at least three times with RPMI 1640 to remove the presence of drug. Washed K562 cells and PBLs (1:5 ratio) were then resuspended in RPMI 1640 with 5% fetal calf serum, 1% penicillin-streptomycin and 1% L-glutamine. PBLs and leukemic cells were transferred into 24 well plate. […] Occassionally, PBLs would be preincubated with inhibitor for periods of time (i.e. 5-24 hours) prior to incubation with K562 cells. In either case, cell cultures were then allowed to incubate for 8 days in 5% CO2 incubator at 37° C. prior to an assessment of cytotoxic function. Over this period, the K562 cells die due to the treatment with mitomycin c.
For an assessment of cytotoxity, effector cells (PBLs) and fresh target cell K562 were added into 96 well plates at various ratios (50:1; 25:1 etc.). Culture medium, effector cells and target cells were added into separate wells as background controls. Cytotoxicity was assessed using a Cytotoxicity Assay kit (Promega) as outlined by the manufacturer.
Cytotoxicity was measured by CytoTox96® assay.
Assay [2] concerns Peripheral T-cells. Briefly: T-cell proliferation in response to tumor cell line K562 (3H-thymidine incorporation). In kind it is cell-based, human. Conditions: 48 hours, mitomycin C treated K562; FIG. 4.
Procedure: as §1

With `[Cl-].[Li+]` [Lithium Chloride], in assay [1] (FIG. 6, inhibitor added at 1 mM and 5 mM), the “effect on cytolytic T-cell (CTL) killing of K562 cells” value is on record as “enhances”.

With `O=C1NC(=O)C(c2ccccc2[N+](=O)[O-])=C1Nc1ccc(O)c(Cl)c1` [SB415286], the “increase in level of proliferative response to K562” value in assay [2] was “two-three fold”. Also, the “potentiation of cytolytic T-cell response” value in assay [1] (10 um, 50:1 effector target ratio) is on record as 5-6 fold; in assay [1] (50 um, 25:1 ratio), 5-6 fold.
